A short description of assay [1]: Binding affinity to 5'-FAM-pre-miR-17 (unknown origin) after 4 hrs by fluorescence assay. Conditions: read-out: Kd.
Assay [2] in a line: Binding affinity to 5'-FAM-pre-miR-372 (unknown origin) assessed as change in total free energy by thermodynamic assay.
Assay [3] in a line: Binding affinity to 5'-FAM-pre-miR-372 (unknown origin) after 4 hrs by fluorescence assay in presence of 100-fold excess of Escherichia coli tRNA.
A short description of assay [4]: Inhibition of pre-miR-372 (unknown origin) cleavage at A24 at 1 to 100 uM after 2 hrs by denaturing gel electrophoresis in presence of recombinant Dicer.
A short description of assay [5]: Inhibition of pre-miR-372 (unknown origin) cleavage at U15-G16-G17-A18 at 10 to 100 uM after 15 mins by RNase footprinting assay in presence of RNase-V1.
Assay [6] can be described thus: Inhibition of pre-miR-21 (unknown origin) cleavage assessed as reduction of oncogenic microRNAs biogenesis at 200 uM by measuring fluorescence every minute for 5 hrs using 5'-FAM,3'-dabcyl-pre-miRNA beacons by FRET assay in presence of recombinant Dicer.
A short description of assay [7]: Binding affinity to 5'-FAM-pre-miR-372 (unknown origin) after 4 hrs by fluorescence assay. Conditions: read-out: Kd.
Assay [8] in a line: Inhibition of pre-miR-17 (unknown origin) cleavage assessed as reduction of oncogenic microRNAs biogenesis at 200 uM by measuring fluorescence every minute for 5 hrs using 5'-FAM,3'-dabcyl-pre-miRNA beacons by FRET assay in presence of recombinant Dicer.
The nature of assay [9]: Inhibition of pre-miR-372 (unknown origin) cleavage assessed as reduction of oncogenic microRNAs biogenesis by measuring fluorescence every minute for 5 hrs using 5'-FAM,3'-dabcyl-pre-miRNA beacons by FRET assay in presence of recombinant Dicer.
The nature of assay [10]: Inhibition of pre-miR-372 (unknown origin) cleavage at U28 at 1 to 100 uM after 2 hrs by denaturing gel electrophoresis in presence of recombinant Dicer.
Assay [11] is described as follows: Inhibition of pre-miR-21 (unknown origin) cleavage assessed as reduction of oncogenic microRNAs biogenesis by measuring fluorescence every minute for 5 hrs using 5'-FAM,3'-dabcyl-pre-miRNA beacons by FRET assay in presence of recombinant Dicer.
A short description of assay [12]: Inhibition of pre-miR-373 (unknown origin) cleavage assessed as reduction of oncogenic microRNAs biogenesis at 200 uM by measuring fluorescence every minute for 5 hrs using 5'-FAM,3'-dabcyl-pre-miRNA beacons by FRET assay in presence of recombinant Dicer.
Assay [13] in a line: Binding affinity to 5'-FAM-pre-miR-372 (unknown origin) after 4 hrs by fluorescence assay in presence of 100-fold excess of 15-mer DNA.
A short description of assay [14]: Inhibition of pre-miR-372 (unknown origin) cleavage at A10-A11 at 10 to 100 uM after 15 mins by RNase footprinting assay in presence of RNase-V1.
Assay [15] is described as follows: Inhibition of pre-miR-372 (unknown origin) cleavage assessed as reduction of oncogenic microRNAs biogenesis at 200 uM by measuring fluorescence every minute for 5 hrs using 5'-FAM,3'-dabcyl-pre-miRNA beacons by FRET assay in presence of recombinant Dicer.
Assay [16] can be described thus: Ratio of Kd for 5'-FAM-pre-miR-372 (unknown origin) in presence of 100-fold excess of 15-mer DNA to Kd for 5'-FAM-pre-miR-372 (unknown origin).
The nature of assay [17]: Inhibition of pre-miR-372 (unknown origin) cleavage at C27 at 10 to 100 uM after 15 mins by RNase footprinting assay in presence of RNase-V1.
A short description of assay [18]: Binding affinity to 5'-FAM-pre-miR-373 (unknown origin) after 4 hrs by fluorescence assay. As to conditions: read-out: Kd.
The nature of assay [19]: Inhibition of pre-miR-17 (unknown origin) cleavage assessed as reduction of oncogenic microRNAs biogenesis by measuring fluorescence every minute for 5 hrs using 5'-FAM,3'-dabcyl-pre-miRNA beacons by FRET assay in presence of recombinant Dicer.
Assay [20] is described as follows: Inhibition of pre-miR-373 (unknown origin) cleavage assessed as reduction of oncogenic microRNAs biogenesis by measuring fluorescence every minute for 5 hrs using 5'-FAM,3'-dabcyl-pre-miRNA beacons by FRET assay in presence of recombinant Dicer.
Assay [21] is described as follows: Ratio of Kd for 5'-FAM-pre-miR-372 (unknown origin) in presence of 100-fold excess of Escherichia coli tRNA to Kd for 5'-FAM-pre-miR-372 (unknown origin).
A short description of assay [22]: Inhibition of pre-miR-372 (unknown origin) cleavage at 10 to 100 uM after 15 mins by RNase footprinting assay in presence of RNase-S1.
The nature of assay [23]: Inhibition of pre-miR-372 (unknown origin) cleavage at A42 at 1 to 100 uM after 2 hrs by denaturing gel electrophoresis in presence of recombinant Dicer.
The nature of assay [24]: Inhibition of pre-miR-372 (unknown origin) cleavage at U31, G32 and U33 at 1 to 100 uM after 15 mins by RNase footprinting assay in presence of RNase-S1.
Assay [25] in a line: Inhibition of pre-miR-372 (unknown origin) cleavage at 1 to 100 uM after 15 mins by RNase footprinting assay in presence of RNase-V1.

From ChEMBL document CHEMBL3603759, “Ribosome-targeting antibiotics as inhibitors of oncogenic microRNAs biogenesis: Old scaffolds for new perspectives in RNA targeting” (Bioorg Med Chem, 2015) come the findings set out here.

Each structure is given as a SMILES string. Active and inactive are the calls of the source. The rule behind the calls is not given here.

One may read the Kd as the concentration at which binding is half-saturated. Broadly, the inhibition is how much of the control response was suppressed. As a reminder, the IC50 is the midpoint of a concentration-inhibition curve.

`NC[C@@H]1O[C@H](O[C@H]2[C@@H](O)[C@H](O[C@@H]3[C@@H](O)[C@H](N)C[C@H](N)[C@H]3O[C@H]3O[C@H](CN)[C@@H](O)[C@H](O)[C@H]3N)O[C@@H]2CO)[C@H](N)[C@@H](O)[C@@H]1O` [FRAMYCETIN]: the Kd in [1] came to 1.88 µM; in assay [3] it was 11.7 µM; in assay [7] it was 11.6 µM; in [13], 11.3 µM; in [18], 15.2 µM. Further, the Activity in assay [2] is 70%. For the same compound, the inhibition result in [4], in assay [5], in [10], in assay [14], in [17] and in assay [23] was “Active” each time. Also, the inhibition in [6], in assay [8], in assay [12] and in assay [15] was 60% throughout. Besides, the IC50 came out at 88.2 µM in assay [9], 76.7 µM in [11], 93.7 µM in assay [19] and 143 µM in [20]. For the same compound, the Ratio in assay [16] and in assay [21] was 1 throughout. For the same compound, the inhibition result in assay [22] is “inactive”.
For `CN(C)c1ccc(O)c2c1C[C@H]1C[C@H]3[C@H](N(C)C)C(O)=C(C(N)=O)C(=O)[C@@]3(O)C(O)=C1C2=O` [MINOCYCLINE], the Kd was determined as 0.651 µM in assay [1]; 1.98 µM in assay [3]; 0.612 µM in [7]; 1.45 µM in assay [13]; 0.597 µM in assay [18]. Besides, the Activity in [2] came to 91%. Also, the inhibition entry in assay [4], in [10], in assay [25] and in assay [23] was “inactive” throughout. The inhibition in assay [6], in assay [8], in assay [12] and in [15] was 30% each time. The IC50 was determined as 397 µM in assay [9], 369 µM in [11], 129 µM in [19] and 327 µM in [20]. The Ratio in [16] was determined as 2.4; in assay [21], 3.2. In addition, the inhibition result in assay [24] was “Active”.
As to `CN(C)[C@@H]1C(O)=C(C(N)=O)C(=O)[C@@]2(O)C(O)=C3C(=O)c4c(O)cccc4[C@@](C)(O)[C@H]3[C@H](O)[C@@H]12` [OXYTETRACYCLINE], the dissociation constant Kd is 6.22 µM in [1]; 8.01 µM in assay [3]; 6.15 µM in assay [7]; 10.2 µM in [13]; 5.2 µM in assay [18]. Further, the Activity in assay [2] stood at 90%. The inhibition in assay [6], in assay [8], in assay [12] and in [15] was 10% each time. In addition, the IC50 in assay [9] was found to be 657 µM; in assay [11], 613 µM; in assay [19], 392 µM; in [20], 491 µM. In addition, the Ratio was 1.6 in assay [16] and 1.3 in [21].
